This is an account of results in patent publication US20230096028A1, “BICYCLIC HETEROCYCLYL COMPOUNDS AND USES THEREOF” (Revolution Medicines, Inc., priority 2019, published 2023).

For assay [1], the target named is T1, SOS1 catalytic domain (residues 564-1049) (Homo sapiens, UniProt Q07889).
T1 sequence (Q07889 564-1049): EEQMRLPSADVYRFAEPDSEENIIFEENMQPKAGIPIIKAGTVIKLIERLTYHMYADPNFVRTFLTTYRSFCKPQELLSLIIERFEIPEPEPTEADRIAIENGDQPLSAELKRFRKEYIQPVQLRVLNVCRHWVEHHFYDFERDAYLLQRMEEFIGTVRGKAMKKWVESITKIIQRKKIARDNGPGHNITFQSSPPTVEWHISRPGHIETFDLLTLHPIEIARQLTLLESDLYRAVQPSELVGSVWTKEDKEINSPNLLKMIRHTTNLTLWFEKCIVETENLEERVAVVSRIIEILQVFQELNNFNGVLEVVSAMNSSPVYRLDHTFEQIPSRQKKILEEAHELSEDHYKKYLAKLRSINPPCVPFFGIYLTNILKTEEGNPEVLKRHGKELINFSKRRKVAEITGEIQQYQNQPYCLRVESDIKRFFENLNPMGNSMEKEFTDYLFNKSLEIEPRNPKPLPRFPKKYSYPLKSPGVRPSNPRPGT
In words: Mode of Action Assay: inhibition of SOS1 nucleotide exchange activity (SOS1 TR-FRET IC50 Assay). In general terms: TR-FRET usually uses a lanthanide donor and a delayed reading to cut background.

Assay [2] concerns the target T1, SOS1 catalytic domain (residues 564-1049). The experiment in a line: Potency Assay: binding affinity to SOS1 using Surface Plasmon Resonance (SPR). More on the design: SOS1 catalytic domain (residues 564-1049) immobilized on a sensor chip. Particulars: immobilized SOS1 catalytic domain (residues 564-1049), read-out: SOS1 SPR Equilibrium Kd. As to the method: Data was reported as equilibrium dissociation constant (Kd) values.
Using a GE Biacore 8K SPR instrument, avi-tagged SOS1 catalytic domain protein was immobilized to a level of approximately 6000 response units (RU) on a streptavidin-coated SPR sensor chip in assay buffer containing 0.01 M HEPES, 0.15 M NaCl and 0.05% v/v Surfactant P20. […] For each test compound, a separate 0 μM sample was generated for use during subsequent double reference subtraction. Serially for each test compound, individual dilution samples were flowed over the immobilized SOS1 protein at a flow rate of 50 μL/minute to monitor the association with SOS1. Dissociation of bound test compound from the SOS1 protein was immediately monitored by flowing assay buffer over the sensor surface and monitoring the decrease in binding signal back to the baseline level seen in the absence of compound. This was repeated for all compound dilutions in each series. The binding level response for each test compound concentration was noted immediately prior to the end of the association phase, and a secondary plot generated showing binding response level versus test compound concentration generated for each compound dilution series.

SMILES strings stand for the structures.

Usually IC50 stands for the concentration that inhibits the measured activity by half. Usually Kd stands for the constant that tells how readily two partners part at equilibrium.

Turning to `C[C@@H](Nc1nc(Cl)nc2c1CN(C(=O)c1ccc3c(n1)OCCO3)C2)c1cc(N)cc(C(F)(F)F)c1` [Example 80], the concentration for half-maximal inhibition (IC50) in assay [1] was over 1 µM. In assay [2], the Kd was over 0.4 µM.
Taken in the same sequence, the figures for `C[C@@H](Nc1nc(Cl)nc2c1CN(C(=O)C1CC3CCC(C1)O3)C2)c1cc(N)cc(C(F)(F)F)c1` (some centres unmarked) [Example 81] were under 1 µM and under 0.4 µM.
Taken in the same sequence, the figures for `C[C@@H](Nc1nc(Cl)nc2c1CN(S(=O)(=O)N1CCCC1)CC2)c1cc(N)cc(C(F)(F)F)c1` [Example 182] were under 1 µM and under 0.4 µM.
Taken in the same sequence, the figures for `C[C@@H](Nc1nc(Cl)nc2c1CN(C(=O)N1CCc3ncccc3C1)C2)c1cc(N)cc(C(F)(F)F)c1` [Example 147] were over 1 µM and under 0.4 µM.
Consider `C[C@@H](Nc1nc(Cl)nc2c1CN(C(=O)N1CCN(C)c3ncncc31)C2)c1cccc(C(F)F)c1F` [Example 428], for which the IC50 in assay [1] was under 1 µM. For the same compound, the Kd in assay [2] was under 0.4 µM.
Taken in the same sequence, the figures for `C[C@@H](Nc1nc(CF)nc2c1CN(C(=O)N1CCOCC1)C2)c1cccc(C(F)F)c1F` [Example 540, N-[(1R)-1-[3-(difluoromethyl)-2-fluorophenyl]ethyl]-2-(fluoromethyl)-6-(morpholine-4-carbonyl)-5H,6H,7H-pyrrolo[3,4-d]pyrimidin-4-amine] were under 1 µM and under 0.4 µM.
Taken in the same sequence, the figures for `C[C@@H](Nc1nc(Cl)nc2c1CN(C(=O)N1CCCC13CCOCC3)C2)c1cc(N)cc(C(F)(F)F)c1` [Example 139] were under 1 µM and under 0.4 µM.
Taken in the same sequence, the figures for `COC1(C(=O)N2Cc3nc(Cl)nc(N[C@H](C)c4cccc(C(F)F)c4F)c3C2)CCN(C(C)=O)CC1` [Example 345] were under 1 µM and under 0.4 µM.
`C[C@@H](Nc1nc(OC2COC2)nc2c1CN(C(=O)N1CCOCC1)C2)c1cc(N)cc(C(F)(F)F)c1` [Example 133, N-[(1R)-1-[3-amino-5-(trifluoro-methyl)phenyl]ethyl]-6-(morpholine-4-carbonyl)-2-(oxetan-3-yl-oxy)-5H,6H,7H-pyrrolo[3,4-d]pyrimidin-4-amine] had a half-maximal inhibitory concentration (IC50) in assay [1] of over 1 µM. In addition, the dissociation constant Kd in assay [2] is over 0.4 µM.
In the case of `O=C(N1CCOCC1)N1Cc2nc(Cl)nc(N[C@H](CO)c3cccc(C(F)(F)F)c3)c2C1` [Example 174], in assay [1], the 50% inhibitory concentration (IC50) is over 1 µM. Besides, the Kd in assay [2] is over 0.4 µM.
Taken in the same sequence, the figures for `COc1cncc(C(=O)N2Cc3nc(Cl)nc(N[C@H](C)c4cc(N)cc(C(F)(F)F)c4)c3C2)n1` [Example 69] were over 1 µM and over 0.4 µM.
Taken in the same sequence, the figures for `COc1cccnc1C(=O)N1Cc2nc(Cl)nc(N[C@H](C)c3cc(N)cc(C(F)(F)F)c3)c2C1` [Example 74] were under 1 µM and under 0.4 µM.
Taken in the same sequence, the figures for `Cc1cn2nnc(C(=O)N3Cc4nc(Cl)nc(N[C@H](C)c5cc(N)cc(C(F)(F)F)c5)c4C3)c2c(=O)[nH]1` [Example 103] were over 1 µM and under 0.4 µM.
Consider `C[C@@H](Nc1nc(Cl)nc2c1CN(S(=O)(=O)N1CCN(C)CC1)C2)c1cc(N)cc(C(F)(F)F)c1` [Example 25], for which the concentration for half-maximal inhibition (IC50) in assay [1] was under 1 µM. Also, the Kd in assay [2] is under 0.4 µM.
Taken in the same sequence, the figures for `C[C@@H](Nc1nc(Cl)nc2c1CN(C(=O)CN1CCOCC1)C2)c1cc(N)cc(C(F)(F)F)c1` [Example 89] were under 1 µM and under 0.4 µM.
Taken in the same sequence, the figures for `CC(=O)N1CC(C)(C(=O)N2Cc3nc(Cl)nc(N[C@H](C)c4cccc(C(F)F)c4F)c3C2)C1` [Example 346] were under 1 µM and under 0.4 µM.
Taken in the same sequence, the figures for `C[C@@H]1CN(C(=O)N2Cc3nc(Cl)nc(N[C@H](C)c4cc(N)cc(C(F)(F)F)c4)c3C2)C[C@@H](C)N1` [Example 143] were under 1 µM and under 0.4 µM.
As to `C[C@@H](Nc1nc(C(F)(F)F)nc2c1CN(C(=O)N1CCOCC1)C2)c1cc(N)cc(C(F)(F)F)c1` [Example 127, N-[(1R)-1-[3-amino-5-(trifluoromethyl)phenyl]ethyl]-6-(morpholine-4-carbonyl)-2-(trifluoromethyl)-5H,6H,7H-pyrrolo[3,4-d]pyrimidin-4-amine], the IC50 in assay [1] was over 1 µM. For the same compound, the equilibrium dissociation constant (Kd) in assay [2] was under 0.4 µM.
Taken in the same sequence, the figures for `C[C@@H](Nc1nc(Cl)nc2c1CN(C(=O)c1cnc3cc[nH]c3c1)C2)c1cc(N)cc(C(F)(F)F)c1` [Example 90] were over 1 µM and over 0.4 µM.
Taken in the same sequence, the figures for `COC1(C(=O)N2Cc3nc(C(F)(F)CO)nc(N[C@H](C)c4cccc(C(F)F)c4F)c3C2)CCOCC1` [Example 487, (R)-(2-(1,1-difluoro-2-hydroxyethyl)-4-((1-(3-(difluoromethyl)-2-fluorophenyl)ethyl)amino)-5,7-dihydro-6H-pyrrolo[3,4-d]pyrimidin-6-yl)(4-methoxytetrahydro-2H-pyran-4-yl)methanone] were under 1 µM and under 0.4 µM.
In turn, `C[C@@H](Nc1nc(Cl)nc2c1CN(C(=O)N1CCN(C)c3ncccc31)C2)c1cccc(C(F)F)c1F` [Example 426] registered an IC50 in assay [1] of under 1 µM. In addition, the Kd in assay [2] is over 0.4 µM.
Taken in the same sequence, the figures for `C[C@@H](Nc1nc(Cl)nc2c1CN(C(=O)c1nccnn1)C2)c1cc(N)cc(C(F)(F)F)c1` [Example 64] were over 1 µM and over 0.4 µM.
`C[C@@H](Nc1nc(Cl)nc2c1CN(C(=O)N1CCNC(=O)C1)C2)c1cc(N)cc(C(F)(F)F)c1` [Example 367]: in assay [1], the half-maximal inhibitory concentration (IC50) was under 1 µM. The dissociation constant (Kd) in assay [2] is under 0.4 µM.
Taken in the same sequence, the figures for `C[C@@H](Nc1nc(Cl)nc2c1CN(C(=O)C1CN(C)C1)C2)c1cc(N)cc(C(F)(F)F)c1` [Example 100] were under 1 µM and under 0.4 µM.
In turn, `C[C@@H](Nc1nc(Cl)nc2c1CN(C(=O)NC1CC[C@H](N)C1)C2)c1cc(N)cc(C(F)(F)F)c1` (some centres unmarked) [Example 150] came in with an IC50 in assay [1] of under 1 µM. Also, the Kd in assay [2] is over 0.4 µM.
Taken in the same sequence, the figures for `C[C@@H](Nc1nc(Cl)nc2c1CN(C(=O)N1CCNc3ncccc31)C2)c1cccc(C(F)F)c1F` [Example 425] were under 1 µM and under 0.4 µM.
Taken in the same sequence, the figures for `COc1cc(OC)nc(C(=O)N2Cc3nc(Cl)nc(N[C@H](C)c4cc(N)cc(C(F)(F)F)c4)c3C2)n1` [Example 63] were over 1 µM and under 0.4 µM.
`C[C@@H](Nc1nc(Cl)nc2c1CN(S(=O)(=O)N1CCOCC1)C2)c1cccc(C(F)(F)CO)c1` [Example 178]: the IC50 in assay [1] is under 1 µM. In addition, in assay [2], the dissociation constant Kd was under 0.4 µM.
As to `COc1ccc(C(=O)N2Cc3nc(Cl)nc(N[C@H](C)c4cc(N)cc(C(F)(F)F)c4)c3C2)cc1OC` [Example 172], the IC50 in assay [1] is under 1 µM. Besides, in assay [2], the dissociation constant Kd is under 0.4 µM.
Taken in the same sequence, the figures for `COC1CN([C@H]2CCc3nc(Cl)nc(N[C@H](C)c4cc(N)cc(C(F)(F)F)c4)c3C2)C1` [Example 432] were under 1 µM and under 0.4 µM.
Taken in the same sequence, the figures for `C[C@@H](Nc1nc(Cl)nc2c1CN(C(=O)c1ccc(-n3ccnc3)cn1)C2)c1cc(N)cc(C(F)(F)F)c1` [Example 76] were over 1 µM and over 0.4 µM.
Taken in the same sequence, the figures for `C[C@@H](Nc1nc(Cl)nc2c1CN(C(=O)c1cc3c(cn1)OCCO3)C2)c1cc(N)cc(C(F)(F)F)c1` [Example 175] were over 1 µM and over 0.4 µM.
As for `C[C@@H](Nc1nc(Cl)nc2c1CN(C(=O)N1CCNc3ncncc31)C2)c1cccc(C(F)F)c1F` [Example 427], the IC50 in assay [1] is under 1 µM. In addition, the Kd in assay [2] was under 0.4 µM.
Taken in the same sequence, the figures for `C[C@@H](Nc1nc(Cl)nc2c1CN(C(=O)N1CCNCC1C(F)(F)F)C2)c1cc(N)cc(C(F)(F)F)c1` (some centres unmarked) [Example 358] were under 1 µM and under 0.4 µM.
With `C[C@@H](Nc1nc(Cl)nc2c1CN(C(=O)c1csc(N3CCOCC3)n1)C2)c1cc(N)cc(C(F)(F)F)c1` [Example 85], in assay [1], the 50% inhibitory concentration (IC50) is over 1 µM. Further, in assay [2], the equilibrium dissociation constant (Kd) is over 0.4 µM.
Taken in the same sequence, the figures for `COC[C@H]1CCCN1C(=O)N1Cc2nc(Cl)nc(N[C@H](C)c3cc(N)cc(C(F)(F)F)c3)c2C1` [Example 154] were under 1 µM and under 0.4 µM.
Taken in the same sequence, the figures for `C[C@@H](Nc1nc(Cl)nc2c1CN(C(=O)C1CCOCC1)C2)c1cc(N)cc(C(F)(F)F)c1` [Example 116, N-[(1R)-1-[3-amino-5-(trifluoromethyl)phenyl]ethyl]-2-chloro-6-(oxane-4-carbonyl)-5H,6H,7H-pyrrolo[3,4-d]pyrimidin-4-amine] were under 1 µM and under 0.4 µM.
